Laboratory results as given in patent publication US20240261243A1, “NITRIC OXIDE DONORS, COMPOSITIONS, AND METHODS OF USE” (priority 2020, published 2024).
Values after ≈ are worked out from the molar mass of the structure shown.

What was measured:
[1] = NO storage and release measurement (chemiluminescence nitric oxide analyzer); type: physicochemical
Experimental: N-diazeniumdiolates NO scaffolds are pH-triggered NO-release donors. Reacting with proton in the physiological condition (e.g., 37° C., pH 7.4), 1 mole of N-diazeniumdiolate regenerates 1 mole of the parent secondary amine compounds and two moles of NO radicals. The real-time detection of NO was performed by using a chemiluminescence-based nitric oxide analyzer (NOA). The total NO storage and dissociation kinetics of water-soluble NO Donors were measured in physiological condition (pH 7.40, 37° C.). The resulting NO-release parameters (e.g., total NO storage, half-life of NO release, maximum flux, and conversion efficiency) were evaluated for suitability as a pharmaceutical product.
Transfer the solution into the high-pressure vessel and purge the headspace with nitrogen. Mix the solution and set nitric oxide pressure to 25 bar (temp 20° C.). Allow the reaction to run for minimum of 3 days. Stop the reaction by venting the NO. Precipitate the reaction product in acetone (10:1 acetone:reaction mixture). Filter the precipitate and vacuum dry.
We sought to determine whether an NO donor and gallium nitrate have antimicrobial synergy against a lab strain of P. aeruginosa (PAK). The Checkerboard assay (described herein) was used with a hepta-substituted cyclodextrin-based NO donor (hereinafter referred to as BIOC76) having approximately ˜4.7 μmol NO/mg dry powder.

[2] = system: P. aeruginosa strain PAK
Experimental: Test articles are added to a 96-well plate so that when a 2× bacterial culture (prepared to 10^6 CFU/ml) is added, the final concentration in all wells was 1×.
All test articles are prepared at 4×→diluted 1:1 when other TA is added (2×), and diluted 1:1 again to 1× when bacteria are added
Plates were incubated at 37° C. for 18-24 h.
Experimental Design: The MIC of BIOC76 and Gallium nitrate individually, then set up a checkerboard assay testing 49 combinations of BIOC76 and Gallium nitrate concentrations against 10^6 CFU/ml P. aeruginosa strain PAK. Plates were incubated at 37° C. for 18-24 h, and growth was assessed visually.

[3] = system: P. aeruginosa biofilms; experiment: Biofilm eradication (MBEC) on peg lid
[4] = system: P. aeruginosa strains; experiment: MIC/MBC of BIOC76 and gallium citrate alone against 21 strains; type: cell-based, Pseudomonas aeruginosa; settings: for MBC Rep 1 / MIC Rep 1: alone
From the text: Determined the MIC of each test article individually against the strains being tested using the CLSI MIC/MBC method.
In this study, we established the MIC/MiBC's of BIOC76 and gallium citrate alone against each of 21 P. aeruginosa strains. […] The activity of both compounds is also strain-dependent. The results are as follows (the species for each strain is Pseudomonas aeruginosa: […]

[5] = system: P. aeruginosa (PAK); experiment: Time-kill assay in CAMHB at 37° C.; type: cell-based, Pseudomonas aeruginosa; settings: 4 mg/ml BIOC76 alone, broth
Experimental: In this study, we established the viability of P. aeruginosa in a broth at 37° C. when exposed to BIOC76 alone compared to BIOC76+gallium citrate. […] To conduct this experiment, we suspended P. aeruginosa (PAK) in CAMHB to a final concentration of 10^6 CFU/ml. Bacteria were exposed to BIOC76, GaCi, or BIOC76+GaCi and incubated at 37° C.

Question: What does the source list for `O=NN(O)N(CCO)CC1OC2OC3C(CN(CCO)N(O)N=O)OC(OC4C(CN(CCO)N(O)N=O)OC(OC5C(CN(CCO)N(O)N=O)OC(OC6C(CN(CCO)N(O)N=O)OC(OC7C(CN(CCO)N(O)N=O)OC(OC8C(CN(CCO)N(O)N=O)OC(OC1C(O)C2O)C(O)C8O)C(O)C7O)C(O)C6O)C(O)C5O)C(O)C4O)C(O)C3O` (stereo not shown) [BIOC76]?
Answer: NO content [1]: ~4.7 μmol NO/mg dry powder; MIC BIOC76 alone [2]: 1000 µg/mL (≈ 539 µM); MIC BIOC76 combo ([2]; in combination with Ga(NO3)3): 125 µg/mL; MBEC of BIOC76 ([3]; PAK (N0049), 3-log reduction in biofilm): 4 mg/mL; effectiveness against P. aeruginosa biofilms ([3]; biofilms grown under aerobic conditions): effective; mode of activity alone (conclusion) ([4]; 21 P. aeruginosa strains): largely bacteriostatic; MBC Rep 1 ([4]; strain N0047 (AR-BANK #103)): 8000 µg/mL; MIC Rep 1 ([4]; strain N0047 (AR-BANK #103)): 2000 µg/mL; MBC Rep 1 ([4]; strain N0048 (ATCC 19143)): 2000 µg/mL; MIC Rep 1 ([4]; strain N0048 (ATCC 19143)): 500 µg/mL; MBC Rep 1 ([4]; strain N0049 (PAK)): 4000 µg/mL; MIC Rep 1 ([4]; strain N0049 (PAK)): 2000 µg/mL; MBC Rep 1 ([4]; strain N0050 (AR-BANK #0095)): 8000 µg/mL; MIC Rep 1 ([4]; strain N0050 (AR-BANK #0095)): 2000 µg/mL; MBC Rep 1 ([4]; strain N0051 (AU32077)): 4000 µg/mL; MIC Rep 1 ([4]; strain N0051 (AU32077)): 1000 µg/mL; MBC Rep 1 ([4]; strain N0052 (AU25834)): 2000 µg/mL; MIC Rep 1 ([4]; strain N0052 (AU25834)): 1000 µg/mL; MBC Rep 1 ([4]; strain N0053 (AU30524)): 16000 µg/mL; MIC Rep 1 ([4]; strain N0053 (AU30524)): 4000 µg/mL; MBC Rep 1 ([4]; strain N0054 (AU26773)): 16000 µg/mL; MIC Rep 1 ([4]; strain N0054 (AU26773)): 2000 µg/mL; MBC Rep 1 ([4]; strain N0055 (AU22725)): >8000 µg/mL; MIC Rep 1 ([4]; strain N0055 (AU22725)): 1000 µg/mL; MBC Rep 1 ([4]; strain N0056 (AU22505)): 16000 µg/mL; MIC Rep 1 ([4]; strain N0056 (AU22505)): 8000 µg/mL; MBC Rep 1 ([4]; strain N0057 (AU35400)): 32000 µg/mL; MIC Rep 1 ([4]; strain N0057 (AU35400)): 8000 µg/mL; MBC Rep 1 ([4]; strain N0058 (AU32543)): 8000 µg/mL; MIC Rep 1 ([4]; strain N0058 (AU32543)): 2000 µg/mL; MBC Rep 1 ([4]; strain N0059 (AR-BANK #0054)): >16000 µg/mL; MIC Rep 1 ([4]; strain N0059 (AR-BANK #0054)): 2000 µg/mL; MBC Rep 1 ([4]; strain N0069 (AR-BANK #0090)): >16000 µg/mL; MIC Rep 1 ([4]; strain N0069 (AR-BANK #0090)): 2000 µg/mL; MBC Rep 1 ([4]; strain N0070 (AR-BANK #0092)): >16000 µg/mL; MIC Rep 1 ([4]; strain N0070 (AR-BANK #0092)): 2000 µg/mL; MBC Rep 1 ([4]; strain N0071 (AR-BANK #0100)): >16000 µg/mL; MIC Rep 1 ([4]; strain N0071 (AR-BANK #0100)): 2000 µg/mL; MBC Rep 1 ([4]; strain N0072 (AR-BANK #0105)): >16000 µg/mL; MIC Rep 1 ([4]; strain N0072 (AR-BANK #0105)): 2000 µg/mL; MBC Rep 1 ([4]; strain N0079 (AR-BANK #0108)): >16000 µg/mL; MIC Rep 1 ([4]; strain N0079 (AR-BANK #0108)): 2000 µg/mL; MBC Rep 1 ([4]; strain N0080 (AR-BANK #0110)): >16000 µg/mL; MIC Rep 1 ([4]; strain N0080 (AR-BANK #0110)): 2000 µg/mL; MBC Rep 1 ([4]; strain N0081 (AR-BANK #0111)): >16000 µg/mL; MIC Rep 1 ([4]; strain N0081 (AR-BANK #0111)): 2000 µg/mL; MBC Rep 1 ([4]; strain N0099 (ATCC 29260)): 8000 µg/mL; MIC Rep 1 ([4]; strain N0099 (ATCC 29260)): 2000 µg/mL; bacterial survival over 24 h [5]: can recover after 24 h
